What was measured:
[1] = biological target: T1, murine Aurora Kinase 1 (mAur1) (Mus musculus, UniProt O70126); assay: murine Aurora Kinase 1 (mAur1) biochemical Scintillation Proximity Assay; conditions: SPA, biotinylated Peptide 830, 1 μM ATP, 12 nM GST-tagged mAur 1 co-expressed with human INCENP
T1 construct: recombinant, GST-tagged mAur 1 (amino acids 67-345) that was co-expressed with human INCENP; GST; made in house
Protocol: (§1) Using a Scintillation Proximity Assay (SPA) format, the murine Aurora Kinase 1 (mAur1) and murine Aurora Kinase 2 (mAur2) biochemical assay measures the ability of mAur2 to phosphorylate the substrate, biotinylated Peptide 830 (DRT, Protein Sciences). Once radiolabeled by the enzyme, the biotinylated substrate is captured on streptavidin-coated SPA beads and the radioactivity, in proximity to the SPA beads, is measured. For the generation of IC50 curves, the reaction was performed in 96-well isoplates (Wallac 1450-514) under the following conditions: a 10 mM stock solution of compound (in 100% dimethylsulfoxide; DMSO) was diluted 10 fold in 100% DMSO. Compounds were then serially diluted, 1:5, for an eight point dose curve, in 100% DMSO. A volume of 1 μL of the diluted compound was added to the reaction buffer that consisted of 25 mM HEPES pH 7.5, 1 mM MnCl2, 1 mM MgCl2, 1 mM DTT, 0.01% Tween20. A mixture with a final concentration per well of 1 μM cold ATP, 0.1 μCi ^33P-ATP (Amersham AH9968) and 1 μM biotinylated Peptide 830 was then added. The reaction was initiated with the addition of either recombinant, GST-tagged mAur 1 (amino acids 67-345) that was co-expressed with human INCENP (amino acids 704-919) (DRT, Protein Sciences) at a final concentration of 12 nM or N-terminal His-tagged mAur2 (amino acids 98-395; DRT, Protein Sciences) at a final concentration of 20 nM. The final reaction volume in each well was 100 μL and the final compound concentration ranged from 10 μM-[…] in 1% DMSO. The reaction mixture was allowed to incubate for 1-2 hours with gentle agitation at 25° C. To terminate the reaction, streptavidin-coated SPA beads (Amersham RPNQ0007; 50 μL of 0.5 mg beads dissolved in 165 mM EDTA) were then added to each well and incubation proceeded for an additional 15 minutes at 25° C. The plate was then centrifuged for ten minutes at 2000 rpm. Phosphorylation of the peptide substrate was measured using a Wallac 1450 Microbeta Plus Liquid Scintillation Counter.

[2] = biological target: T2, murine Aurora Kinase 2 (mAur2) (Mus musculus, UniProt P97477); assay: murine Aurora Kinase 2 (mAur2) biochemical Scintillation Proximity Assay; conditions: SPA, biotinylated Peptide 830, 1 μM ATP, 20 nM His-tagged mAur2
T2 construct: N-terminal His-tagged mAur2 (amino acids 98-395; DRT, Protein Sciences); His (N); made in house
T2 sequence (P97477 98-395): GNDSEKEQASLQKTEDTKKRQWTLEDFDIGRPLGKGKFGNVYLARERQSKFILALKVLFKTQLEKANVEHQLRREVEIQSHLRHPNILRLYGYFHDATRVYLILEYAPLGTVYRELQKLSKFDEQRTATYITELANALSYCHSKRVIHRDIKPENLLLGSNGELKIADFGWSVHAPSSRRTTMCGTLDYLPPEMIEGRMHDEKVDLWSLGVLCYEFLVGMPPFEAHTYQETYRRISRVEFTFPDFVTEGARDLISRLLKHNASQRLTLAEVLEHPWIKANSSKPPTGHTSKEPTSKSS
Protocol: as §1

T1 sequence (O70126 67-345): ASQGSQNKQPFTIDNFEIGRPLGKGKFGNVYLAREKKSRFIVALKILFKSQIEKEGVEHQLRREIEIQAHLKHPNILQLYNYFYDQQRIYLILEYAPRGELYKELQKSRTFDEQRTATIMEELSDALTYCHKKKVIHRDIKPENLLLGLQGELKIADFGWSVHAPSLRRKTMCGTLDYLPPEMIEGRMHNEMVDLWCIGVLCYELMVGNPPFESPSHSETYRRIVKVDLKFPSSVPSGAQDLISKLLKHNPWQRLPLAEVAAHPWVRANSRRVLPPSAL
T1 sequence (Q9NQS7 704-918 partner): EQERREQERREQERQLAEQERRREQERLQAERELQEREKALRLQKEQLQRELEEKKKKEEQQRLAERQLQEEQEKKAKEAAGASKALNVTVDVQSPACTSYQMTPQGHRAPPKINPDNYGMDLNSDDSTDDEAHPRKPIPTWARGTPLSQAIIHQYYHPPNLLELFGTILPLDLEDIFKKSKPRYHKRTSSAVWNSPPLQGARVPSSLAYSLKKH

| SMILES | IC50 [1] [nM] | IC50 [2] [nM] |
| --- | --- | --- |
| Nc1ncnn2cc(C(=O)NCC(F)(F)F)c(-c3ccc(Nc4nc5cscc5[nH]4)cc3)c12 [Example 16, 4-amino-5-[4-(1H-thieno[3,4-d]imidazol-2-ylamino)phenyl]-N-(2,2,2-trifluoroethyl)pyrrolo[2,1-f][1,2,4]triazine-6-carboxamide] | < 100 | < 100 |
| Nc1ncnn2cc(C(=O)O)c(-c3ccc(Nc4nc5cc(F)cc(F)c5[nH]4)cc3)c12 [Example 71, 4-amino-5-{4-[(5,7-difluoro-1H-benzimidazol-2-yl)amino]phenyl}pyrrolo[2,1-f][1,2,4]triazine-6-carboxylic acid] | < 100 | < 100 |
| Nc1ncnn2cc(C(=O)NCC(F)(F)F)c(-c3ccc(Nc4nc5cc(F)cc(F)c5[nH]4)cc3)c12 [Example 6, 4-amino-5-{4-[(5,7-difluoro-1H-benzimidazol-2-yl)amino]phenyl}-N-(2,2,2-trifluoroethyl)pyrrolo[2,1-f][1,2,4]triazine-6-carboxamide] | < 100 | < 100 |
| Nc1ncnn2cc(C(=O)NCC(F)(F)F)c(-c3ccc(Nc4nc5cc6c(cc5[nH]4)OC(F)(F)O6)c(F)c3)c12 [Example 60, 4-amino-5-{4-[(2,2-difluoro-5H-[1,3]dioxolo[4,5-f]benzimidazol-6-yl)amino]-3-fluorophenyl}-N-(2,2,2-trifluoroethyl)pyrrolo[2,1-f][1,2,4]triazine-6-carboxamide] | < 100 | < 100 |
| Nc1ncnn2cc(C(=O)NCC(F)(F)F)c(-c3ccc(Nc4nc5ccc(Oc6ccccc6F)c(F)c5[nH]4)cc3)c12 [Example 39, 4-amino-5-(4-{[7-fluoro-6-(2-fluorophenoxy)-1H-benzimidazol-2-yl]amino}phenyl)-N-(2,2,2-trifluoroethyl)pyrrolo[2,1-f][1,2,4]triazine-6-carboxamide] | < 100 | < 100 |
| Nc1ncnn2cc(C(=O)NCC(F)(F)F)c(-c3ccc(Nc4nc5ccc(C(F)(F)F)nc5[nH]4)cc3)c12 [Example 120, 4-amino-N-(2,2,2-trifluoroethyl)-5-(4-{[5-(trifluoromethyl)-3H-imidazo[4,5-b]pyridin-2-yl]amino}phenyl)pyrrolo[2,1-f][1,2,4]triazine-6-carboxamide] | < 100 | < 100 |
| Nc1ncnn2cc(C(=O)NCC(F)(F)F)c(-c3ccc(Nc4nc5ccc(NC6CCCCC6)nc5[nH]4)cc3)c12 [Example 48, 4-amino-5-(4-{[5-(cyclohexylamino)-3H-imidazo[4,5-b]pyridin-2-yl]amino}phenyl)-N-(2,2,2-trifluoroethyl)pyrrolo[2,1-f][1,2,4]triazine-6-carboxamide] | < 100 | < 100 |
| CCCN(C)C(=O)c1cn2ncnc(N)c2c1-c1ccc(Nc2nc3cc(F)cc(F)c3[nH]2)cc1 [Example 93, 4-amino-5-{4-[(5,7-difluoro-1H-benzimidazol-2-yl)amino]phenyl}-N-methyl-N-propylpyrrolo[2,1-f][1,2,4]triazine-6-carboxamide] | < 100 | < 100 |

Other lines, results leading:

| IC50 [1] [nM] | IC50 [2] [nM] | SMILES |
| --- | --- | --- |
| < 100 | < 100 | Cc1ccc(-c2ccc3nc(Nc4ccc(-c5c(C(=O)NCC(F)(F)F)cn6ncnc(N)c56)cc4)[nH]c3n2)cc1 [Example 115, 4-amino-5-(4-{[5-(4-methylphenyl)-3H-imidazo[4,5-b]pyridin-2-yl]amino}phenyl)-N-(2,2,2-trifluoroethyl)pyrrolo[2,1-f][1,2,4]triazine-6-carboxamide] |
| < 100 | < 100 | COCCNC(=O)c1cn2ncnc(N)c2c1-c1ccc(Nc2nc3ccc(Oc4ccccc4)c(F)c3[nH]2)cc1 [Example 110, 4-amino-5-{4-[(7-fluoro-6-phenoxy-1H-benzimidazol-2-yl)amino]phenyl}-N-(2-methoxyethyl)pyrrolo[2,1-f][1,2,4]triazine-6-carboxamide] |
| < 100 | < 100 | Nc1ncnn2cc(C(=O)N3CCCC3)c(-c3ccc(Nc4nc5cc(F)cc(F)c5[nH]4)cc3)c12 [Example 96, 5-{4-[(5,7-difluoro-1H-benzimidazol-2-yl)amino]phenyl}-6-(pyrrolidin-1-ylcarbonyl)pyrrolo[2,1-f][1,2,4]triazin-4-amine] |
| < 100 | < 100 | Nc1ncnn2cc(C(=O)NC3CCCC3)c(-c3ccc(Nc4nc5ccc(Oc6ccccc6)c(F)c5[nH]4)cc3)c12 [Example 112, 4-amino-N-cyclopentyl-5-{4-[(7-fluoro-6-phenoxy-1H-benzimidazol-2-yl)amino]phenyl}pyrrolo[2,1-f][1,2,4]triazine-6-carboxamide] |
| < 100 | < 100 | NC(=O)C1CCN(C(=O)c2cn3ncnc(N)c3c2-c2ccc(Nc3nc4cc(F)cc(F)c4[nH]3)cc2)CC1 [Example 81, 1-[(4-amino-5-{4-[(5,7-difluoro-1H-benzimidazol-2-yl)amino]phenyl}pyrrolo[2,1-f][1,2,4]triazin-6-yl)carbonyl]piperidine-4-carboxamide] |
| < 100 | < 100 | COc1ccc2nc(Nc3ccc(-c4c(C(=O)NCC(F)(F)F)cn5ncnc(N)c45)cc3)[nH]c2c1 [Example 8, 4-amino-5-{4-[(6-methoxy-1H-benzimidazol-2-yl)amino]phenyl}-N-(2,2,2-trifluoroethyl)pyrrolo[2,1-f][1,2,4]triazine-6-carboxamide] |
| < 100 | < 100 | Nc1ncnn2cc(C(=O)NC3CC3)c(-c3ccc(Nc4nc5ccc(Oc6ccccc6)c(F)c5[nH]4)cc3)c12 [Example 105, 4-amino-N-cyclopropyl-5-{4-[(7-fluoro-6-phenoxy-1H-benzimidazol-2-yl)amino]phenyl}pyrrolo[2,1-f][1,2,4]triazine-6-carboxamide] |
| < 100 | < 100 | CC(C)CNC(=O)c1cn2ncnc(N)c2c1-c1ccc(Nc2nc3ccc(Oc4ccccc4)c(F)c3[nH]2)cc1 [Example 111, 4-amino-5-{4-[(7-fluoro-6-phenoxy-1H-benzimidazol-2-yl)-amino]phenyl}-N-isobutylpyrrolo[2,1-f][1,2,4]triazine-6-carboxamide] |
| < 100 | < 100 | COCc1cccc(-c2ccc3nc(Nc4ccc(-c5c(C(=O)NCC(F)(F)F)cn6ncnc(N)c56)cc4)[nH]c3n2)c1 [Example 116, 4-amino-5-[4-({5-[3-(methoxymethyl)phenyl]-3H-imidazo[4,5-b]pyridin-2-yl}amino)phenyl]-N-(2,2,2-trifluoroethyl)pyrrolo[2,1-f][1,2,4]triazine-6-carboxamide] |
| < 100 | < 100 | Nc1ncnn2cc(C(=O)NCC(F)(F)F)c(-c3ccc(Nc4nc5ccc(Sc6cccc(F)c6)nc5[nH]4)cc3)c12 [Example 50, 4-amino-5-[4-({5-[(3-fluorophenyl)thio]-3H-imidazo[4,5-b]pyridin-2-yl}amino)phenyl]-N-(2,2,2-trifluoroethyl)pyrrolo[2,1-f][1,2,4]triazine-6-carboxamide] |
| < 100 | < 100 | Nc1ncnn2cc(C(=O)O)c(-c3ccc(Nc4nc5ccc(Oc6ccccc6)c(F)c5[nH]4)cc3)c12 [Example 101, 4-amino-5-{4-[(7-fluoro-6-phenoxy-1H-benzimidazol-2-yl)amino]phenyl}pyrrolo[2,1-f][1,2,4]triazine-6-carboxylic acid] |
| < 100 | < 100 | Cc1cccc2nc(Nc3ccc(-c4c(C(=O)NCC(F)(F)F)cn5ncnc(N)c45)cc3)[nH]c12 [Example 22, 4-amino-5-{4-[(7-methyl-1H-benzimidazol-2-yl)amino]phenyl}-N-(2,2,2-trifluoroethyl)pyrrolo[2,1-f][1,2,4]triazine-6-carboxamide] |
| < 100 | < 100 | Cc1cccc(Oc2ccc3nc(Nc4ccc(-c5c(C(=O)NCC(F)(F)F)cn6ncnc(N)c56)cc4)[nH]c3c2F)c1 [Example 42, 4-amino-5-(4-{[7-fluoro-6-(3-methylphenoxy)-1H-benzimidazol-2-yl]amino}phenyl)-N-(2,2,2-trifluoroethyl)pyrrolo[2,1-f][1,2,4]triazine-6-carboxamide] |
